Results: publication PMC6010119 (Journal of Enzyme Inhibition and Medicinal Chemistry, 2017)

Experiments:
[1] = target: EGFR (Homo sapiens, UniProt P00533); assay type: biochemical; settings: test concentration not given; conclusion says EGFR in A549 cancer cells
[2] = test system: A549 lung cancer cells; test: cells; settings: Homo sapiens, A549, read-out: IC50 on A549

EGFR, sequence (P00533 25-1210): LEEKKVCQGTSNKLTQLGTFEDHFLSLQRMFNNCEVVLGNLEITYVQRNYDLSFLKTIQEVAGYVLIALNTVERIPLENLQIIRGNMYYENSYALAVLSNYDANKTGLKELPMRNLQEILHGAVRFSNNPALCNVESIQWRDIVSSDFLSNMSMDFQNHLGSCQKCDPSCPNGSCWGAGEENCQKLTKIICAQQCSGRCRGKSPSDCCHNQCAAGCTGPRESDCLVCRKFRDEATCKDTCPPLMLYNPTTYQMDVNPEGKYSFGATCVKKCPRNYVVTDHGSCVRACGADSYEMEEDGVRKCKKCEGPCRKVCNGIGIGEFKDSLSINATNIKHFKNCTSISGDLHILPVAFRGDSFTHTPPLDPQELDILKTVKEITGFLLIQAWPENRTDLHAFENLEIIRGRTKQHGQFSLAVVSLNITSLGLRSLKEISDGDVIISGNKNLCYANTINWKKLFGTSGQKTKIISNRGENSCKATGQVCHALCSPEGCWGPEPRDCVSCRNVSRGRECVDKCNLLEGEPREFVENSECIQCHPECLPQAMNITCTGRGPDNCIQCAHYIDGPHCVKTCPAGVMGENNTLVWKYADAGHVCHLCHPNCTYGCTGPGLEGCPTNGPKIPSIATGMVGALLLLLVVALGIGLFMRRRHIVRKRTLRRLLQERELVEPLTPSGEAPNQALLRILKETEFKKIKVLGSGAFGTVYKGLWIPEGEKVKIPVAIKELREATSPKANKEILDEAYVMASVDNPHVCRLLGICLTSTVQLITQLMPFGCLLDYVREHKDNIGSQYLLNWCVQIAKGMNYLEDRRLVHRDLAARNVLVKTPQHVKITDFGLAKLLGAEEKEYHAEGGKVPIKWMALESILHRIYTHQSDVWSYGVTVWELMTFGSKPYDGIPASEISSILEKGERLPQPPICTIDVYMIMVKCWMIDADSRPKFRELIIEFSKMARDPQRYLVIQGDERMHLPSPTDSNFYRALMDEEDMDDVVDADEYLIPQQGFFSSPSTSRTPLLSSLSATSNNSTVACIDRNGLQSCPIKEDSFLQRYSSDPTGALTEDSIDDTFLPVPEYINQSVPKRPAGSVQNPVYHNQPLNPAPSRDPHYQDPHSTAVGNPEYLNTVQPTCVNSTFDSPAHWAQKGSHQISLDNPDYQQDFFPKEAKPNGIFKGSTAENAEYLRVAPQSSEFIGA

% inhibition of EGFR [1] [%] | IC50 [2] [nM] | SMILES
55.58 | 1017 ± 10 | NS(=O)(=O)c1ccc(-n2c(SCC(=O)Nc3ccccc3)nc3cc4ccccc4cc3c2=O)cc1 [Compound 5, 2-(4-Oxo-3-(4-sulfamoylphenyl)-3,4-dihydrobenzo[g]quinazolin-2-ylthio)-N-phenylacetamide]
84.31 | 105 ± 12 | Cc1ccccc1NC(=O)CSc1nc2cc3ccccc3cc2c(=O)n1-c1ccc(S(N)(=O)=O)cc1 [Compound 6, 2-(4-Oxo-3-(4-sulfamoylphenyl)-3,4-dihydrobenzo[g]quinazolin-2-ylthio)-N-o-tolylacetamide]
66.85 | 1271 ± 2 | Cc1cccc(NC(=O)CSc2nc3cc4ccccc4cc3c(=O)n2-c2ccc(S(N)(=O)=O)cc2)c1 [Compound 7, 2-(4-Oxo-3-(4-sulfamoylphenyl)-3,4-dihydrobenzo[g]quinazolin-2-ylthio)-N-m-tolylacetamide]
90.21 | 220 ± 120 | Cc1ccc(NC(=O)CSc2nc3cc4ccccc4cc3c(=O)n2-c2ccc(S(N)(=O)=O)cc2)cc1 [Compound 8, 2-(4-Oxo-3-(4-sulfamoylphenyl)-3,4-dihydrobenzo[g]quinazolin-2-ylthio)-N-p-tolylacetamide]
58.04 | 545 ± 3 | COc1cc(NC(=O)CSc2nc3cc4ccccc4cc3c(=O)n2-c2ccc(S(N)(=O)=O)cc2)cc(OC)c1OC [Compound 15, 2-(4-Oxo-3-(4-sulfamoylphenyl)-3,4-dihydrobenzo[g]quinazolin-2-ylthio)-N-(3,4,5-trimethoxyphenyl)acetamide]
– | 727 ± 8 | C#Cc1cccc(Nc2ncnc3cc(OCCOC)c(OCCOC)cc23)c1 [Erlotinib, reference compound]
